Source: patent publication US5773005A, “Purified flavonoid and diterpene 5α-reductase inhibitors from thuja orientalis for androgen-related diseases” (priority 1995, dated 1998)

Columns and labels:
[1] = system: male pattern baldness in stage V; assay: Therapeutic effect on male pattern baldness in stage V, scored (Example 10); format: in vivo, human; set-up: key: 10: alopecic area decreased to 1/5 or less and hair density increased by 2/3 or more; 7: alopecic area decreased to 1/3 or less and hair density increased by 1/3 or more; 4: alopecic area decreased to 1/2 or less and hair density increased by 1/5 or more; alopecic area decreased by 20% and hair density increased by 10% or more; 1: alopecic area hardly changed but hair density increased definitely; 0: no change at all; conditions: formula with 1% diterpene, twice a day; for Score, 0 mo.: 0 months; for Score, 1 mo.: 1 month; for Score, 2 mo.: 2 months; for Score, 4 mo.: 4 months; for Score, 6 mo.: 6 months
Method: Diterpenes of the invention were evaluated for their therapeutic effects on male pattern baldness in stage V. The curatives were prepared in accordance with the formula set forth in Table 11. | Ethanol 50% | Propylene glycol | 10% | HCO-60 3% | Diterpene 1% | Purified water | 36% The curatives were applied to the bald area of male volunteers (aged 27-45) in five groups each consisting of 5 cases. The application was done daily on a twice-a-day basis and continued for 6 months. The therapeutic efficacy was evaluated by the following criteria based on the decrease in the area of the parietal alopecic lesion and the density of regrowing hairs: 10 (alopecic area decreased to 1/5 or less and hair density increased by 2/3 or more); 7 (alopecic area decreased to 1/3 or less and hair density increased by 1/3 or more); 4 (alopecic area decreased to 1/2 or less and hair density increased by 1/5 or more); 2 (alopecic area decreased by 20% and hair density increased by 10% or more); 1 (alopecic area hardly changed but hair density increased definitely); 0 (no change at all).

[2] = system: acne patients; assay: Treatment of acne patients with diterpene lotion, scored (Example 9); format: in vivo, human; conditions: lotion with 1% diterpene, twice a day, group score of 6 patients (3 cured completely, 2 half cured, 1 cured 30%, 0 not cured), highest 18; for Score, 1 mo.: 1 month; for Score, 2 mo.: 2 months
Method: Patients in their twenties who were suffering from acne were divided into five groups each consisting of 3 males and 3 females and treated with a lotion of the following formula prepared in accordance with the invention. |Ethanol 50% |1,3-Butylene glycol | 20% |HCO-60 3% |Diterpene 1% |Purified water 26% The lotion was applied to the diseased part of a patient's face after washing with takallophene soap and the treatment was conducted daily on a twice-a-day basis for a period of 2 months. The acne in each patient was diagnosed as being moderate and a mixture of comedones (primarily whiteheads), papules and pustules. The results were evaluated by the following criteria: 3, cured completely; 2, half cured; 1, cured 30%; 0, not cured. The highest score was 18 and the lowest score was 0.

[3] = system: male pattern baldness in stage V; assay: Efficacy against male pattern baldness in stage V, male volunteers (Example 4); format: in vivo, human; conditions: 1% in 50% alcohol, twice a day, 4 months
Text: The 5α-reductase inhibitors extracted from Thuja orientalis were examined for their efficacy against male pattern baldness in stage V. The test samples were components A, B and C, as well as the terpenoid isolated from component A and the (iso)scutellarein isolated from component B, which were each dissolved at a concentration of 1% in 50% alcohol. These samples were daily applied on a twice-a-day basis for a period of 4 months to the bald heads of 27-45 year old male volunteers in five groups each consisting of 5 cases.

[4] = system: male hirsute volunteers; assay: Suppression of hair regrowth in male hirsute volunteers, wax-depilated inferior limbs (Example 5); format: in vivo, human; conditions: 1% in 50% alcohol
[5] = system: androgen-dependent human prostatic cancer strain HONDA; assay: Growth control of androgen-dependent human prostatic cancer strain HONDA in nude mice (Example 15); format: in vivo, human (transplanted in BALB/CA-nu/nu mice); conditions: once a day, 28 days; for control of tumor growth (HONDA): peroral in 0.5% CMC
Method: Seven-week old BALB/CA-nu/nu mice were transplanted with androgen-dependenthuman prostatic cancer strain HONDA beneath the dorsal skin and 6-week old BALB/CA-nu/nu mice were transplanted with androgen-dependent rat prostatic cancer strain […] beneath the dorsal skin. When the respective tumors grew to a specified size, the animals were divided into test and control groups. The test groups were administered with suspensions of trans-communic acid and flutamide in 0.5% CMC. The control groups were administered with 0.5% CMC alone. The drugs and the vehicle were administered perorally via an oral probe. The administration was repeated daily for 28 consecutive days on a once-a-day basis. The tumor volume (mm^3) was calculated by the formula of major axis (mm) × the square of minor axis (mm^2)/2.

[6] = system: androgen-dependent rat prostatic cancer strain R3327-G; assay: Growth control of androgen-dependent rat prostatic cancer strain R3327-G in nude mice (Example 15); format: in vivo, rat (transplanted in BALB/CA-nu/nu mice); conditions: castrated mice given 25 mg testosterone enanthat per head; peroral, once a day, 28 days
Method: Seven-week old BALB/CA-nu/nu mice were transplanted with androgen-dependenthuman prostatic cancer strain HONDA beneath the dorsal skin and 6-week old BALB/CA-nu/nu mice were transplanted with androgen-dependent rat prostatic cancer strain R3327-G beneath the dorsal skin. When the respective tumors grew to a specified size, the animals were divided into test and control groups. The test groups were administered with suspensions of trans-communic acid and flutamide in 0.5% CMC. The control groups were administered with 0.5% CMC alone. The drugs and the vehicle were administered perorally via an oral probe. The administration was repeated daily for 28 consecutive days on a once-a-day basis. The tumor volume (mm^3) was calculated by the formula of major axis (mm) × the square of minor axis (mm^2)/2.
The growth of cancer strain R3327-G was not controlled in castrated mice when they were administered 25 mg of testosterone enanthat per head concurrently with the cancer transplantation.

[7] = system: women suffering from idiopathic hirtuism; assay: Women suffering from idiopathic hirsutism, depilated right forearm (Example 14); format: in vivo, human; conditions: 0.1% in 50% ethanol, twice a day
Method: Five women (aged 20-35) suffering from idiopathic hirtuism were treated with 0.1% trans-communic acid in 50% ethanol that was applied daily to a wax depilated area of the right forearm on a twice-a-day basis. Depilation was repeated every other month until the end of the experiment.
Measurements were conducted on the hairs attached to the cloth used for wax depilation.

[8] = system: hirsute male volunteers; assay: Hair regrowth on wax-depilated legs of hirsute male volunteers (Example 13); format: in vivo, human; conditions: 0.1% in 50% ethanol, twice a day, 3 months, control section indistinguishable from surrounding area
Method: An experiment was conducted on 5 hirsute male volunteers aged 25-48. The center of each straight leg was depilated with wax to create a lesion about 2 cm wide and 3 cm long. […] The application was done daily on a twice-a-day basis for 3 consecutive months.

Row | Compound | Score, 0 mo. [1] | Score, 1 mo. [1] | Score, 2 mo. [1] | Score, 4 mo. [1] | Score, 6 mo. [1] | Score, 1 mo. [2] | Score, 2 mo. [2] | control of tumor growth (HONDA) [5] | further results
1 | C=C/C(C)=C/CC1C(=C)CCC2C(C)(CO)CCCC12C (stereo not drawn) [Sample III, (E)8(17),12,14-labdatrien-19-ol] | 0 | 0 | 4 | 7 | 10 | 9 | 18 | – | –
2 | (iso)scutellarein | – | – | – | – | – | – | – | – | regrowth of hair [3]: pronounced regrowth of hair; regrowth of hair as compared to the control section ([4]; topical, control 50% alcohol alone): significantly suppressed; regrowth of hair in the test sections when the experiment ended ([4]; 3 months): barely recognizable
3 | C=C/C(C)=C/CC1C(=C)CCC2C(C)(C)CCCC12C (stereo not drawn) [Sample II, (E)8(17),12,14-labdatriene] | 0 | 1 | 4 | 7 | 10 | 10 | 18 | – | –
4 | CC(C)C(=O)Nc1ccc([N+](=O)[O-])c(C(F)(F)F)c1 [Flutamide, reference compound] | 0 | 1 | 2 | 2 | 4 | 4 | 8 | effective in tumor control | efficacy of flutamide relative to trans-communic acid (HONDA) ([5]; peroral): considerably weaker than that of trans-communic acid
5 | C=C/C(C)=C/CC1C(=C)CCC2C(C)(C(=O)O)CCCC12C (stereo not drawn) [Sample I, (E)8(17),12,14-labdatrien-19-oic acid] | 0 | 1 | 4 | 7 | 10 | 8 | 18 | could control the growth of this cancer significantly in a dose-dependent manner | control of tumor growth (R3327-G) [6]: could effectively control the growth of cancer in a dose-dependent manner; efficacy relative to flutamide (R3327-G) [6]: considerably stronger than that of flutamide; Hair length (peaked at), sixth measurement, case A ([7]; case A, before treatment: peaked at ca. 10 mm): ca. 10 mm; Hair density, sixth measurement, case A ([7]; case A, before treatment: thick): sparse; Hair length, sixth measurement, case B ([7]; case B, before treatment: peaked at ca. 6 mm): ca. 1 mm; Hair density, sixth measurement, case B ([7]; case B, before treatment: thick): a few; Hair length, sixth measurement, case D ([7]; case D, before treatment: peaked at ca. 8 mm): ca. 2 mm; Hair density, sixth measurement, case D ([7]; case D, before treatment: thick): a few; Regrowth of hair, test section, case A ([8]; case A): No regrowth of hair; Regrowth of hair, test section, case B ([8]; case B): No regrowth of hair; Regrowth of hair, test section, case C ([8]; case C): Regrowth of a few hair; Regrowth of hair, test section, case D ([8]; case D): No regrowth of hair; Regrowth of hair, test section, case E ([8]; case E): No regrowth of hair; tumor size at 20 mg/kg vs flutamide 200 mg/kg (HONDA) ([5]; trans-communic acid 20 mg/kg, peroral): almost comparable to that of the group administered with 200 mg/kg of flutamide
